{
  "source": "patent US10668055B2",
  "about": "“Cancer treatment using combinations of ERK and RAF inhibitors” (BIOMED VALLEY DISCOVERIES, INC., priority 2013, dated 2020)",
  "key": {"A375 cells [1]": {"system": "A375 cells", "assay": "Proliferation assay (Alamar Blue, 96 hours) on parental and dose-escalated A375 cell lines", "settings": "Homo sapiens", "quoted_text": "Cancer cell lines were maintained in cell culture under standard media and serum conditions. For dose escalation studies, A375 cells were split, grown to about 40-60% confluence, and then treated with the initial dose of the specified drug.\nProliferation assays were used to track changes in sensitivity to the escalated agent(s) at appropriate time intervals (e.g. each month, although the timing is dependent on adequate cell numbers being available). For proliferation assays, cells were seeded in 96-well plates at 3000 cells per well in drug-free DMEM medium containing 10% FBS and allowed to adhere overnight prior to addition of compound or vehicle control. […] Test compounds were incubated with the cells for 96 hours at 37° C. and 5% CO2 in a humidified atmosphere. Alamar Blue 10% (v/v) was then added and incubated for 4 hours and fluorescent product was detected using a BMG FLUOstar plate reader. The average media only background value was deducted and the data analyzed using a 4-parameter logistic equation in GraphPad Prism. Paclitaxel was used as a positive control."}, "[2]": {"system": "melanoma xenograft model derived from biopsies obtained from a patient", "assay": "Melanoma xenograft model derived from patient biopsies after progression on vemurafenib", "assay_type": "in vivo", "settings": "model with acquired cross-resistance"}, "A375 cells [3]": {"system": "A375 cells", "assay": "Combination study, 10×8 dose matrix, Alamar Blue / CellTiter-Glo, Bliss additivity model", "assay_type": "cell-based, human", "settings": "single agent", "quoted_text": "For combination studies, A375 cells (ATCC) were seeded into triplicate 96-well plates at a cell density of 3000 cells/well in DMEM plus 10% FBS and allowed to adhere overnight prior to addition of test compound or vehicle control. Combinations were tested using a 10×8 dose matrix with a final DMSO concentration of 0.2%. A 96 hour assay incubation period followed, with subsequent addition of Alamar Blue 10% (v/v) and 4 hours incubation prior to reading on a fluorescent plate reader. After reading Alamar Blue, the medium/Alamar Blue mix was flicked off and 100 μl of CellTiter-Glo/PBS (1:1) added and the plates processed as per the manufacturer's instructions (Promega). Media only background values were subtracted before the data was analysed. The Bliss additivity model was then applied.\nIn brief, predicted fractional inhibition values for combined inhibition were calculated using the equation Cbliss=A+B−(A×B) where A and B are the fractional inhibitions obtained by drug A alone or drug B alone at specific concentrations. Cbliss is the fractional inhibition that would be expected if the combination of the two drugs were exactly additive. Cbliss values are subtracted from the experimentally observed fractional inhibition values to give an ‘excess over Bliss’ value. Excess over Bliss values greater than 0 indicate synergy, whereas values less than 0 indicate antagonism. […]"}, "[4]": {"system": "A375 human melanoma xenograft", "assay": "A375 in vivo study: tumor growth delay and regression responses", "parameters": "species or system athymic nude mice", "protocol": "Female athymic nude mice (Crl:NU(Ncr)-Foxn/^nu, Charles River) were nine weeks old with a body weight (BW) range of 17.5 to 26.2 grams on Day 1 of the study. The animals were fed ad libitum water (reverse osmosis, 1 ppm CI), and NIH 31 Modified and Irradiated Lab Diet® consisting of 18.0% crude protein, 5.0% crude fat, and 5.0% crude fiber. The mice were housed on irradiated Enrich-o'cobs™ Laboratory Animal Bedding in static microisolators on a 12-hour light cycle at 20-22° C. (68-72° F.) and 40-60% humidity. The recommendations of the Guide for Care and Use of Laboratory Animals with respect to restraint, husbandry, surgical procedures, feed and fluid regulation, and veterinary care were complied with.\nTumor xenografts were initiated with A375 human melanomas by serial subcutaneous transplantation in athymic nude mice. On the day of tumor implant, each test mouse received a 1 mm^3 A375 fragment implanted subcutaneously in the right flank, and tumor growth was monitored as the average size approached the target range of 80 to 120 mm^3. Tumors were measured in two dimensions using calipers, and volume was calculated using the formula: […]\nTen days after tumor implantation, designated as Day 1 of the study, the animals were sorted into nine groups (Groups 1-9) each consisting of fifteen mice and one group (Group 10) consisting of ten mice. Individual tumor volumes ranged from 75 to 144 mm^3 and group mean tumor volumes were 110 or 111 mm^3.\nOn Day 1 of the study, mice were sorted into nine groups (Group 1-9) each consisting of fifteen mice and one group (Group 10) consisting of ten mice, and dosing was initiated according to the treatment plan summarized in Table 15 below. Each dose was given by oral gavage (p.o.) in a dosing volume of 10 mL/kg (0.2 mL per 20 grams of body weight), scaled to the body weight of each individual animal. The vehicle and dabrafenib doses were to be given once daily until study end (qd to end), whereas the BVD-523 doses were to be given twice daily until study end (bid to end). For bid dosing, dosing was initiated in the afternoon on Day 1, so that one dose was given on the first day (“first day 1 dose”).\nDue to the striking response to combination treatment, dosing in Groups 2-5 was stopped on Day 20 in order to monitor tumor re-growth. Dosing was to be re-initiated in a group when the mean tumor burden reached 1000 mm^3. By Day 42, the 1000 mm^3 mean tumor burden had not been reached in any of the combination groups. Dosing was re-initiated to permit post-final dose serum and tumor sampling for pharmacokinetic analyses. […] The final dosing schedules are shown below in Table 16.\nTumors were measured using calipers twice per week, and each animal was euthanized when its tumor reached the pre-determined tumor volume endpoint of 2000 mm^3 or on the final day, whichever came first. Animals that exited the study for tumor volume endpoint were documented as euthanized for tumor progression (TP), with the date of euthanasia. The time to endpoint (TTE) for analysis was calculated for each mouse by the following equation:\n[formula] where TTE is expressed in days, endpoint volume is expressed in mm^3, b is the intercept, and m is the slope of the line obtained by linear regression of a log-transformed tumor growth data set. The data set consists of the first observation that exceeded the endpoint volume used in analysis and the three consecutive observations that immediately preceded the attainment of this endpoint volume. The calculated TTE is usually less than the TP date, the day on which the animal was euthanized for tumor size. […] Any animal classified as having died from NTR (non-treatment-related) causes due to accident (NTRa) or due to unknown etiology (NTRu) were excluded from TTE calculations (and all further analyses). Animals classified as TR (treatment-related) deaths or NTRm (non-treatment-related death due to metastasis) were assigned a TTE value equal to the day of death. […]"}, "A375": {"system": "A375", "assay": "Single agent proliferation assay (CellTiter-Glo, 72 h)", "assay_type": "cell-based, human", "settings": "Homo sapiens, A-375; A375, 72 h", "protocol": "(§1) Cells were seeded in 96-well plates at the densities and media conditions indicated in Table 17 and allowed to adhere overnight prior to addition of compound or vehicle control. Compounds were prepared from DMSO stocks to give the desired final concentrations. The final DMSO concentration was constant at 0.1%. Test compounds were incubated with the cells for 72 h at 37° C., 5% CO2 in a humidified atmosphere. CellTiter-Glo® reagent (Promega, Madison, Wis.) was added according to manufacturer's instructions and luminescence detected using the BMG FLUOstar plate reader (BMG Labtech, Ortenberg, Germany). The average media only background value was deducted and the data analysed using a 4-parameter logistic equation in GraphPad Prism (GraphPad Software, La Jolla, Calif.)."}, "[5]": {"assay": "A375 in vivo study: toxicity (body weight, deaths, side effects)", "text": "Animals were weighed daily on Days 1-5, then twice per week until completion of the study. […] Individual body weight loss was monitored as per protocol, and any animal that exceeded the limits for acceptable body weight loss was euthanized. Group mean body weight loss also was monitored as per protocol. Dosing was to be suspended in any group that exceeded the limits for acceptable mean body weight loss. If mean body weight recovered, then dosing was to be resumed in that group, but at a lower dosage or less frequent dosing schedule.\nAcceptable toxicity for the maximum tolerated dose (MTD) was defined as a group mean body-weight loss of less than 20% during the study and not more than 10% treatment-related (TR) deaths. […] A death was classified as non-treatment-related (NTR) if there was no evidence that death was related to treatment side effects. NTR deaths were further characterized based on cause of death. A death was classified as NTRa if it resulted from an accident or human error. […] A death was classified as NTRu if the cause of death was unknown and there was no available evidence of death related to treatment side effects, metastasis, accident or human error, although death due to treatment side effects cannot be excluded."}, "G-361": {"system": "G-361", "assay": "Single agent proliferation assay (CellTiter-Glo, 72 h)", "assay_type": "cell-based", "settings": "Homo sapiens, G-361, 72 h", "protocol": "as §1"}},
  "note": "Read-outs that look alike come from different tables or passages of the source.",
  "data": [
    {"smiles": "CC(=O)Nc1cccc(-n2c(=O)n(C3CC3)c(=O)c3c(Nc4ccc(I)cc4F)n(C)c(=O)c(C)c32)c1", "note": "[Trametinib]", "values": [
      {"measurement": "IC50", "setting": "A375 cells [1]; A-375, read-out: Relative IC50, Month 1, Par = Parental cell line", "result": 0.5, "unit": "nM"},
      {"measurement": "IC50", "setting": "A375 cells [1]; A-375, read-out: Relative IC50, Month 1, cell line BVD-523 (0.48 μM)", "result": 0.7, "unit": "nM"},
      {"measurement": "IC50", "setting": "A375 cells [1]; A-375, read-out: Relative IC50, Month 1, cell line Dab (15 nM Dab)", "result": 2.5, "unit": "nM"},
      {"measurement": "IC50", "setting": "A375 cells [1]; A-375, read-out: Relative IC50, Month 1, cell line Dab/523 (7.5 nM/0.24 μM)", "result": 3.1, "unit": "nM"},
      {"measurement": "IC50", "setting": "A375 cells [1]; A-375, read-out: Relative IC50, Month 1, cell line Tram (growing in 2 nM Tram)", "result": 2.2, "unit": "nM"},
      {"measurement": "IC50", "setting": "A375 cells [1]; A-375, read-out: Relative IC50, Month 2, Par = Parental cell line", "result": 0.4, "unit": "nM"},
      {"measurement": "IC50", "setting": "A375 cells [1]; A-375, read-out: Relative IC50, Month 2, cell line BVD-523 (0.8 μM)", "result": 24.3, "unit": "nM"},
      {"measurement": "IC50", "setting": "A375 cells [1]; A-375, read-out: Relative IC50, Month 2, cell line Dab (127 nM Dab)", "result": 1.1, "unit": "nM"},
      {"measurement": "IC50", "setting": "A375 cells [1]; A-375, read-out: Relative IC50, Month 2, cell line Dab/523 (12.5 nM/0.4 μM)", "result": 6.2, "unit": "nM"},
      {"measurement": "IC50", "setting": "A375 cells [1]; A-375, read-out: Relative IC50, Month 2, cell line Tra (8 nM Tram)", "result": 0.7, "unit": "nM"},
      {"measurement": "IC50", "setting": "A375 cells [1]; A-375, read-out: Relative IC50, Month 3, Par = Parental cell line", "result": 0.2, "unit": "nM"},
      {"measurement": "IC50", "setting": "A375 cells [1]; A-375, read-out: Relative IC50, Month 3, cell line Dab (3.2 μM Dab)", "result": 0.4, "unit": "nM"}
    ]},
    {"smiles": "CC(C)(C)c1nc(-c2cccc(NS(=O)(=O)c3c(F)cccc3F)c2F)c(-c2ccnc(N)n2)s1", "note": "[Dabrafenib]", "values": [
      {"measurement": "Anti-tumor response", "setting": "[2]", "result": "insensitive"},
      {"measurement": "Sensitivity of A375 cells (BRAF V600E)", "setting": "A375 cells [3]", "result": "sensitive"},
      {"measurement": "% TGD", "setting": "[4]; G6: 50 mg/kg po qd to end", "result": 75, "unit": "%"},
      {"measurement": "CR (complete regressions)", "setting": "[4]; G6: 50 mg/kg po qd to end", "result": 0},
      {"measurement": "Median TTE", "setting": "[4]; G6: 50 mg/kg po qd to end", "result": 16.1, "unit": "days"},
      {"measurement": "PR (partial regressions)", "setting": "[4]; G6: 50 mg/kg po qd to end", "result": 0},
      {"measurement": "T-C", "setting": "[4]; G6: 50 mg/kg po qd to end", "result": 6.9, "unit": "days"},
      {"measurement": "TFS (tumor free survivors)", "setting": "[4]; G6: 50 mg/kg po qd to end", "result": 0},
      {"measurement": "Tumors that attained the 2000 mm^3 endpoint volume", "setting": "[4]; G6: 50 mg/kg po qd to end", "result": "All"},
      {"measurement": "% TGD", "setting": "[4]; G7: 100 mg/kg po qd to end", "result": 210, "unit": "%"},
      {"measurement": "CR (complete regressions)", "setting": "[4]; G7: 100 mg/kg po qd to end", "result": 0},
      {"measurement": "Median TTE", "setting": "[4]; G7: 100 mg/kg po qd to end", "result": 28.5, "unit": "days"},
      {"measurement": "PR (partial regressions)", "setting": "[4]; G7: 100 mg/kg po qd to end", "result": 1},
      {"measurement": "T-C", "setting": "[4]; G7: 100 mg/kg po qd to end", "result": 19.3, "unit": "days"},
      {"measurement": "TFS (tumor free survivors)", "setting": "[4]; G7: 100 mg/kg po qd to end", "result": 0},
      {"measurement": "Tumors that attained the 2000 mm^3 endpoint volume", "setting": "[4]; G7: 100 mg/kg po qd to end", "result": "13/15"},
      {"measurement": "MTV (n) D45", "setting": "[4]; G7: 100 mg/kg po qd to end, Day 45", "result": "282 (2) imd"},
      {"measurement": "PR (partial regressions)", "setting": "[4]; G7: 100 mg/kg po qd to end, listed as dabrafenib", "result": "One and one"},
      {"measurement": "MTV", "setting": "[4]; G7: 100 mg/kg po qd to end, two tumors remaining on Day 45", "result": 282, "unit": "mm^3"},
      {"measurement": "IC50", "setting": "A375", "result": "~0.7", "unit": "nM"},
      {"measurement": "Deaths NTR", "setting": "[5]; G6: 50 mg/kg po qd to end", "result": 0},
      {"measurement": "Deaths TR", "setting": "[5]; G6: 50 mg/kg po qd to end", "result": 0},
      {"measurement": "Deaths NTR", "setting": "[5]; G7: 100 mg/kg po qd to end", "result": 0},
      {"measurement": "Deaths TR", "setting": "[5]; G7: 100 mg/kg po qd to end", "result": 0},
      {"measurement": "Signs of treatment-related side effects", "setting": "[5]; mono- and combination therapy groups", "result": "no noteworthy signs of treatment-related side effects"},
      {"measurement": "IC50", "setting": "G-361", "result": "~1.4", "unit": "nM"}
    ]},
    {"smiles": "CCCS(=O)(=O)Nc1ccc(F)c(C(=O)c2c[nH]c3ncc(-c4ccc(Cl)cc4)cc23)c1F", "note": "[Vemurafenib]", "values": [
      {"measurement": "IC50", "setting": "A375", "result": 47, "unit": "nM"},
      {"measurement": "IC50", "setting": "G-361", "result": 248, "unit": "nM"}
    ]}
  ]
}
